What was measured:
[1] = test system: field corn (Zea mays var. Pioneer 3732); assay: Preemergence herbicidal activity, corn; assay type: in vivo; details: Zea mays, pre-emergence, Rate of Application 0.3 Kg/Ha, examined after 12-17 days, read-out: PREEMERGENCE HERBICIDAL ACTIVITY (% CONTROL) CRN
[2] = test system: velvetleaf (Abutilon theophrasti); assay: Preemergence herbicidal activity, velvetleaf; assay type: in vivo; details: Abutilon theophrasti, pre-emergence, Rate of Application 0.3 Kg/Ha, examined after 12-17 days, read-out: PREEMERGENCE HERBICIDAL ACTIVITY (% CONTROL) ABUTH
[3] = test system: blackgrass (Aloepecurus myosuroides); assay: Preemergence herbicidal activity, blackgrass; assay type: in vivo; details: Alopecurus myosuroides, pre-emergence, Rate of Application 0.3 Kg/Ha, examined after 12-17 days, read-out: PREEMERGENCE HERBICIDAL ACTIVITY (% CONTROL) ALOMY
[4] = test system: soybean (Glycine max var. Winchester); assay: Postemergence herbicidal activity, soybean; assay type: in vivo; details: Glycine max, post-emergence, rate of application 0.3 Kg/Ha, rated after 12-17 days, read-out: Postemergence herbicidal activity (% control) SOY
[5] = test system: wheat (Triticum aestivum var. Lew); assay: Preemergence herbicidal activity, wheat; assay type: in vivo; details: Triticum aestivum, pre-emergence, Rate of Application 0.3 Kg/Ha, examined after 12-17 days, read-out: PREEMERGENCE HERBICIDAL ACTIVITY (% CONTROL) WHT
[6] = test system: Johnsongrass (Sorghum halepense); assay: Postemergence herbicidal activity, johnsongrass; assay type: in vivo; details: Sorghum halepense, post-emergence, rate of application 0.3 Kg/Ha, rated after 12-17 days, read-out: Postemergence herbicidal activity (% control) SORHA

| Structure (SMILES) | inhibition at 300 g/ha [1] [%] | inhibition at 300 g/ha [2] [%] | inhibition at 300 g/ha [3] [%] | inhibition at 300 g/ha [4] [%] | inhibition at 300 g/ha [5] [%] | inhibition at 300 g/ha [6] [%] | melting point [°C] |
| --- | --- | --- | --- | --- | --- | --- | --- |
| CCc1nc2c(-n3c(=O)cc(C(F)(F)F)n(C)c3=O)c(F)cc(Cl)c2[nH]1 [Compound 367, 3-(4-CHLORO-2-ETHYL-6-FLUOROBENZIMIDAZOL-7-YL)-1-METHYL-6-TRIFLUOROMETHYL-2,4(1H,3H)-PYRIMIDINEDIONE] | 100 | 100 | 90 | 100 | 95 | 100 | 150 to 155 |
| Cn1c(C(F)(F)F)cc(=O)n(-c2c(F)cc(Cl)c3[nH]c(C(F)(F)F)cc23)c1=O [Compound 500, 3-(7-CHLORO-5-FLUORO-2-TRIFLUOROMETHYLINDOL-4-YL)-1-METHYL-6-TRIFLUOROMETHYL-2,4(1H,3H)-PYRIMIDINEDIONE] | 90 | 100 | 75 | 95 | 75 | 100 | 208 to 210 |
| CC(C)c1nc2c(-n3c(=O)cc(C(F)(F)F)n(C)c3=O)c(F)cc(Cl)c2o1 [Compound 28, 1-METHYL-6-TRIFLUOROMETHYL-3-[7-CHLORO-5-FLUORO-2-(1-METHYLETHYL)BENZOXAZOL4-YL]-2,4(1H,3H)-PYRIMIDINEDIONE] | 95 | 100 | 100 | 100 | 100 | 95 | – |

From patent US6352958B1, “Cycloimido-substituted benzofused heterocyclic herbicides” (FMC Corporation, priority 1997, dated 2002)
